Reference: patent US8236793B2, “Diazabicyclic aryl derivatives as cholinergic receptor modulators” (Neurosearch A/S, priority 2004, dated 2012)
Counter-ions that a name gives are not always drawn.

target: T1, α7-subtype of nicotinic receptors (Rattus norvegicus, UniProt Q05941); assay: In vitro inhibition of 3H-α-bungarotoxine binding in rat brain; settings: rat cerebral cortex homogenate; 3H-α-bungarotoxine 2 nM; 2 hours at 37° C.
T1 construct: Cerebral cortices from male Wistar rats (150-250 g) are homogenised; from tissue; host or cells: rat cerebral cortex membrane homogenate (male Wistar rats)
T1 sequence (Q05941 23-502): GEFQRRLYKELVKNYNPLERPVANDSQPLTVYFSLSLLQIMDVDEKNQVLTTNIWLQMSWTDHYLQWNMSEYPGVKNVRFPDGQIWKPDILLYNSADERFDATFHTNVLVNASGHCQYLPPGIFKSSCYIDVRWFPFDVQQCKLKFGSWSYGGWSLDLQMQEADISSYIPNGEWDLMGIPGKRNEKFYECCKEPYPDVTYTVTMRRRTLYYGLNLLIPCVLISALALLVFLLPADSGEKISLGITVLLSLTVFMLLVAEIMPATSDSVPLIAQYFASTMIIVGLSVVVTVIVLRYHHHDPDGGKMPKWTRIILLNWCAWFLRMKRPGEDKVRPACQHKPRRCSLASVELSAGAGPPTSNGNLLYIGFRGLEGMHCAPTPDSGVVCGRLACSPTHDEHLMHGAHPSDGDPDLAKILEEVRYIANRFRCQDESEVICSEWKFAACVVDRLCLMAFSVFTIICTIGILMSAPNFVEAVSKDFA

Structure (SMILES)	IC50
C(#Cc1ccc(N2CCN3CCC2CC3)nn1)c1ccccc1 [Compound B1, 4-(6-Phenylethynyl-pyridazin-3-yl)-1,4-diaza-bicyclo[3.2.2]nonane]	60 nM
COc1ccc(C#Cc2ccc(N3CCN4CCC3CC4)nn2)cc1 [Compound B4, 4-[6-(4-Methoxy-phenylethynyl)-pyridazin-3-yl]-1,4-diaza-bicyclo[3.2.2]nonane]	180 nM
C(#Cc1ccc(N2CCN3CCC2CC3)nn1)c1cccnc1 [Compound B5, 4-[6-(3-Pyridinlethynyl)-pyridazin-3-yl]-1,4-diaza-bicyclo[3.2.2]nonane]	150 nM
c1ccc(Sc2ccc(N3CCN4CCC3CC4)nn2)cc1 [Compound C1, 4-(6-Phenylsulfanyl-pyridazin-3-yl)-1,4-diaza-bicyclo[3.2.2]nonane]	600 nM

test system: not given; assay: not given; settings: not given

Structure (SMILES)	melting point
CC(=O)Nc1ccc(C(=O)Nc2ccc(N3CCN4CCC3CC4)nc2)cc1	255 °C (dec.)
COc1ccc(C#Cc2ccc(N3CCN4CCC3CC4)nn2)cc1 (as salt: fumaric acid salt) [Compound B4, 4-[6-(4-Methoxy-phenylethynyl)-pyridazin-3-yl]-1,4-diaza-bicyclo[3.2.2]nonane]	208 to 209 °C
Fc1cccc(C#Cc2ccc(N3CCN4CCC3CC4)nn2)c1 (as salt: fumaric acid salt)	173.5 to 175 °C
CC(=O)Nc1ccc(C(=O)Nc2ccc(N3CCN4CCC3CC4)cc2)cc1	> 240 °C
CC(=O)Nc1cccc(C(=O)Nc2ccc(N3CCN4CCC3CC4)cc2)c1	184 to 187 °C
C(#Cc1ccc(N2CCN3CCC2CC3)nn1)c1cccnc1 (as salt: fumaric acid salt) [Compound B5, 4-[6-(3-Pyridinlethynyl)-pyridazin-3-yl]-1,4-diaza-bicyclo[3.2.2]nonane]	177.8 to 181.2 °C
CC(=O)Nc1cccc(C(=O)Nc2ccc(N3CCN4CCC3CC4)nc2)c1	60 °C
Nc1ccc(C#Cc2ccc(N3CCN4CCC3CC4)nn2)cc1	181.7 to 183.4 °C
